In the supplement of paper PMC10331698:
± gives the standard deviation of the averaged measurements.

Assays:
Assay in all cases: level (log10 ratio to DMSO vehicle control); higher = higher biomarker level / cell amount than vehicle control
Conditions in all cases: in DMSO
[1] = compound: CNS(=O)(=O)C(F)(F)C(F)(F)C(F)(F)C(F)(F)C(F)(F)C(F)(F)C(F)(F)C(F)(F)F [N-Methylperfluorooctanesulfonamide]
Description: (§1)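 BioMAP Diversity Plus panel of 12 human primary cell co-culture systems (3C, 4H, LPS, SAg, BT, BF4T, BE3C, CASM3C, HDF3CGF, KF3CT, MyoF, Mphg). Compounds were added 1 h before stimulation and left for 24 h (MyoF 48 h; BT 72 h for soluble read-outs or 6 d for IgG). Biomarkers were read by ELISA, cytotoxicity by SRB, PBMC viability and proliferation by Alamar Blue. Each well value was divided by the mean of 8 DMSO control wells on the same plate and log10 transformed; duplicate blinded samples were tested at 4 concentrations.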

Perfluorohexanoic acid = compound: O=C(O)C(F)(F)C(F)(F)C(F)(F)C(F)(F)C(F)(F)F [Perfluorohexanoic acid]
Description: as §1

[2] = compound: CC(C)(C)C(=O)CC(=O)C(F)(F)C(F)(F)C(F)(F)F [(Heptafluorobutanoyl)pivaloylmethane]
Description: as §1

[3] = compound: O=C(O)CCC(F)(F)C(F)(F)C(F)(F)C(F)(F)C(F)(F)F [2H,2H,3H,3H-Perfluorooctanoic acid]
Description: as §1

[4] = compound: O=S(=O)(O)C(F)(F)C(F)(F)C(F)(F)C(F)(F)C(F)(F)C(F)(F)C(F)(F)C(F)(F)F [Perfluorooctanesulfonic acid]
Description: as §1

[5] = compound: O=S(=O)(O)C(F)(F)C(F)(F)C(F)(F)C(F)(F)C(F)(F)C(F)(F)C(F)(F)C(F)(F)F [Potassium perfluorooctanesulfonate]
Description: as §1

Test System	level (log10) ([1]; 6700 nM)	level (log10) ([1]; 20000 nM)	level (log10) ([1]; 60000 nM)	level (log10) (Perfluorohexanoic acid; 6700 nM)	level (log10) (Perfluorohexanoic acid; 20000 nM)	level (log10) (Perfluorohexanoic acid; 60000 nM)	level (log10) ([2]; 6700 nM)	level (log10) ([2]; 20000 nM)	level (log10) ([2]; 60000 nM)	level (log10) ([3]; 6700 nM)	level (log10) ([3]; 20000 nM)	level (log10) ([3]; 60000 nM)	level (log10) ([4]; 6700 nM)	level (log10) ([4]; 20000 nM)	level (log10) ([4]; 60000 nM)	level (log10) ([5]; 6700 nM)	level (log10) ([5]; 20000 nM)	level (log10) ([5]; 60000 nM)
LPS:sPGE2	-0.011 ± 0.0028	0.038 ± 0.0028	0.0305 ± 0.032	0.025 ± 0.052	0.013 ± 0.021	-0.009 ± 0.041	0.058 ± 0.013	0.04 ± 0.018	0.181 ± 0.023	-0.0095 ± 0.033	-0.08 ± 0.0014	-0.111 ± 0.049	0.01 ± 0.035	-0.0315 ± 0.0092	-0.075 ± 0.013	-0.033 ± 0.042	-0.0005 ± 0.03	-0.053 ± 0.096
LPS:sTNF-alpha	0.0045 ± 0.073	-0.012 ± 0.1	0.0085 ± 0.13	-0.009 ± 0.0014	-0.0005 ± 0.021	-0.0515 ± 0.0021	-0.001 ± 0.0014	0.0195 ± 0.0064	0.07 ± 0.014	-0.017 ± 0.0014	-0.0165 ± 0.005	-0.014 ± 0.0085	0.0195 ± 0.079	-0.043 ± 0.062	-0.0545 ± 0.076	-0.03 ± 0.073	-0.047 ± 0.1	-0.0915 ± 0.15
SAg:CCL2/MCP-1	-0.0205 ± 0.0035	-0.003 ± 0.011	-0.004 ± 0.0085	-0.01 ± 0.0057	-0.0255 ± 0.0078	0.0135 ± 0.018	-0.005	-0.0155 ± 0.0035	-0.0085 ± 0.05	-0.005 ± 0.0085	-0.007 ± 0.02	-0.019 ± 0.025	0.003	0.004 ± 0.0042	0.0015 ± 0.0064	-0.015 ± 0.0071	-0.0025 ± 0.0021	0.004 ± 0.013
SAg:CD38	-0.012 ± 0.0085	-0.0255 ± 0.012	-0.0515 ± 0.0064	0.003 ± 0.023	-0.004 ± 0.0014	-0.0005 ± 0.025	0.0075 ± 0.097	0.017 ± 0.065	-0.0125 ± 0.00071	-0.0215 ± 0.037	-0.024 ± 0.041	-0.0595 ± 0.03	-0.01 ± 0.021	-0.0075 ± 0.00071	-0.037 ± 0.018	-0.0085 ± 0.0092	-0.01 ± 0.013	-0.023 ± 0.02
SAg:CD40	-0.016 ± 0.02	-0.0415 ± 0.012	-0.0695 ± 0.025	0.0065 ± 0.016	-0.0145 ± 0.012	-0.0095 ± 0.021	-0.0125 ± 0.011	-0.0335 ± 0.0021	-0.0515 ± 0.0078	-0.0325 ± 0.054	-0.025 ± 0.052	-0.034 ± 0.048	-0.0165 ± 0.05	-0.032 ± 0.038	-0.054 ± 0.013	-0.005 ± 0.0057	-0.0205 ± 0.039	-0.032 ± 0.042
SAg:CD62E/E-Selectin	-0.021 ± 0.0042	-0.0475 ± 0.019	-0.043 ± 0.0071	0.001 ± 0.018	-0.01 ± 0.023	0.0195 ± 0.005	-0.003 ± 0.042	-0.0235 ± 0.005	-0.106 ± 0.04	-0.01 ± 0.03	0.0015 ± 0.025	0.029 ± 0.016	0.012 ± 0.014	0.0205 ± 0.0021	0.04 ± 0.028	-0.004 ± 0.0057	0.0315 ± 0.013	0.033
SAg:CD69	-0.0325 ± 0.0064	-0.0405 ± 0.022	-0.0685 ± 0.053	-0.0065 ± 0.00071	-0.0115 ± 0.021	-0.0125 ± 0.0092	-0.027 ± 0.023	-0.023 ± 0.02	-0.007 ± 0.014	-0.0265 ± 0.043	-0.025 ± 0.038	-0.0145 ± 0.028	-0.013 ± 0.0014	-0.0035 ± 0.018	0.0035 ± 0.016	-0.0075 ± 0.013	-0.002 ± 0.014	-0.002 ± 0.021
SAg:CXCL8/IL-8	-0.0435 ± 0.026	-0.0395 ± 0.005	-0.0275 ± 0.0035	-0.049 ± 0.052	-0.009 ± 0.038	0.0035 ± 0.084	-0.0195 ± 0.046	-0.062 ± 0.024	-0.098 ± 0.14	-0.029 ± 0.079	-0.0335 ± 0.039	0.0525 ± 0.018	-0.015	0.01 ± 0.0057	0.041 ± 0.0085	-0.0055 ± 0.018	0.0145 ± 0.036	0.025 ± 0.027
SAg:CXCL9/MIG	-0.006 ± 0.017	-0.0065 ± 0.0021	-0.013 ± 0.011	-0.0005 ± 0.0064	-0.001 ± 0.0085	0.0055 ± 0.005	-0.002 ± 0.011	0.0015 ± 0.00071	0.002 ± 0.016	-0.0005 ± 0.015	-0.0105 ± 0.018	0 ± 0.0057	-0.0035 ± 0.0035	0.0105 ± 0.012	0.005 ± 0.013	-0.0135 ± 0.00071	0.005 ± 0.0057	-0.0035 ± 0.019
SAg:PBMC Cytotoxicity	0.0065 ± 0.018	0.034 ± 0.0042	0.044 ± 0.045	-0.0155 ± 0.046	0.002 ± 0.0028	0.009 ± 0.073	-0.0265 ± 0.013	-0.007 ± 0.017	-0.124 ± 0.15	0.0125 ± 0.0078	0.0255 ± 0.039	0.0115 ± 0.039	0.0135 ± 0.0092	0.021 ± 0.013	0.0185 ± 0.013	0.0165 ± 0.0092	0.012 ± 0.013	0.0315 ± 0.029
SAg:Proliferation	-0.0295 ± 0.026	-0.0755 ± 0.0092	-0.048 ± 0.1	0.0065 ± 0.011	0.003 ± 0.021	0.027 ± 0.0042	-0.0415 ± 0.011	-0.033 ± 0.0057	-0.0835 ± 0.1	-0.011 ± 0.017	-0.0475 ± 0.067	-0.115	0.001 ± 0.031	0.0185 ± 0.011	0.0675 ± 0.00071	0.0005 ± 0.0021	0.0495 ± 0.0035	0.066 ± 0.051
SAg:SRB	-0.0095 ± 0.022	-0.021 ± 0.02	-0.0685 ± 0.036	-0.0055 ± 0.0035	-0.0135 ± 0.0035	-0.001 ± 0.0028	-0.0035 ± 0.0092	-0.0025 ± 0.005	-0.031 ± 0.034	-0.0065 ± 0.00071	-0.0095 ± 0.0035	-0.0025 ± 0.013	0.004 ± 0.0042	-0.0095 ± 0.0078	-0.0265 ± 0.011	-0.0055 ± 0.028	-0.0255 ± 0.035	-0.0335 ± 0.0035
